This is an account of results in patent US20250042857A1, “SOS1 Inhibitor With Pyrido-Fused Six-Membered Ring Structure” (HAIHE BIOPHARMA CO., LTD., priority 2021, published 2025).

Read-outs that look alike come from different tables or passages of the source.

For assay [1], the system named is p-ERK of PC-9 cells. Nature of the assay: p-ERK HTRF assay in PC-9 cells. In kind it is cell-based. The conditions noted are these: PC-9 lung cancer cells, 1 hour treatment, read-out: IC50, inhibitory activity on p-ERK of PC-9 cells. Here is the method: IC50 Values of Compounds Determined by p-ERK HTRF Assay in PC-9 Cells
Experimental objective: an inhibitory effect of the test compounds on the phosphorylation of PC-9ERK of lung cancer cells at a cellular level was evaluated by detecting the phosphorylation of ERK.
• PRMI 1640 medium (Invitrogen-11875093) • 0.25% pancreatin (Invitrogen-25200056) • Phosphoric acid buffer salt solution (PBS, pH 7.4) (Invitrogen-10010023) • Double-antibody (PS) (Invitrogen-15140122) • Fetal bovine serum (FBS) (Gibco-10091148) • Trypan blue (Gibco-15250061) • 10-cm culture dish (Corning-430167) • 10-mL pipette (Costar-4488) • Pipettor (Sartorius-17009031) • 15-mL centrifuge tube (Corning-430052) • 50-mL centrifuge tube (Corning-430829) • Cryotube (Thermo-377267) • 1.5-mL EP tube (Axygen-MCT-150-C-S) • Cell incubator (Thermo-371) • Microscope (Olympus-CKX41) • Centrifuge (Flying Pigeon-TDL-80-2B) • Cell counter (Countstar-IC-1000) • Envision (Perkin Elmer) • Spark 10M (TECAN) • Phospho-ERK1/2 (Thr202/Tyr204) Experimental kit (Cisbio, Cat. No. 64AERPEG) • PC-9 cells: RPMI1640+10% FBS+1% PS
• 1) PBS, 0.25% pancreatin, and a cell culture medium were placed in a water-bath kettle at 37° C. for preheating; • 2) cells were observed under a microscope, a fusion degree was evaluated, and no bacterial and fungi pollution was confirmed; • 3) a culture solution was removed, the cells were washed with 5 mL of PBS and digested with 2 mL of the 0.25% trypsin, the digestion was terminated with 10 mL of the fresh cell culture medium, a culture dish was rinsed, and the cells were transferred to a 15-mL centrifuge tube; • 4) the collected cells were centrifuged at 1,000 rpm for 5 minutes; • 5) after the centrifugation, the supernatant was discarded, the cells were resuspended in 5 mL of the cell culture medium, 20 μL of the resuspended cells were aspirated, and the number and viability of viable cells were recorded; • 6) the cell culture medium was used and the cell density was adjusted (PC-9:10,000 cells/well, and 45 μL per well); • 7) in a 384-well plate, 45 μL of a cell suspension per well was transferred according to an experimental design figure; and • 8) the cells were incubated overnight at 37° C. and 5% CO2.
• 1) The compounds were diluted from the stock concentration to 10 mM with 100% DMSO (Trametinib was diluted to 1 mM), then 3-fold diluted into 10 points (5 μL of the diluted compounds with the concentration of 10 mM were transferred to 10 μL of the DMSO in an LDV plate), and centrifuged at 1,000 rpm/min for 1 minute; • 2) 5 μL of the diluted compounds of step 1) were transferred to an inter plate 1 containing 45 μL of the cell culture medium (the compounds were diluted from 1,000× to 100×); • 3) 5 μL of the diluted compounds of step 2) were transferred to an inter plate 2 containing 45 μL of the cell culture medium (the compounds were diluted from 100× to 10×); • 4) 5 μL of the compounds were pipetted from the inter plate 2 into a cell culture plate (the compounds were diluted from 10 folds to 1 fold), the final concentrations of the test compounds were 10,000 nM, 3333.33 nM, 1111.11 nM, 370.37 nM, 123.46 nM, 41.15 nM, 13.72 nM, 4.57 nM, 1.52 nM, and […], the solution was centrifuged at 1,000 rpm/min for 1 minute, and the final content of the DMSO was 0.1%; and • 5) the cells were treated in an incubator at 37° C. for 1 hour. […]

Assay [2] has as its target KRAS-G12C/SOS1 (Homo sapiens (Human), UniProt Q07889). Kind of assay: Detection of inhibitory effects of compounds on KRAS-G12C/SOS1 (KRASG12C/SOS binding kit, HTRF). The conditions noted are these: Em665/620, read-out: IC50, inhibitory activity on interaction of KRAS-G12C/SOS1. From the text:
Experimental objective: The inhibitory effects of the tested compounds on KRAS-G12C/SOS1 were detected. IC50 was used to characterize the inhibitory ability of the compounds on the KRAS-G12C/SOS1. The lower IC50 value indicated the stronger inhibitory ability. BI-3406 was used as a positive control compound.
Experimental reagents: KRASG12C/SOS binding kit (Cisbio, cat. 63ADK000CB16PEG); DMSO (Sigma, cat. D8418-1L); and 384-well white plate (PerkinElmer, cat. 6007290)
• 1. Preparation of compounds: the test compounds were dissolved in 100% DMSO to obtain 10 mM stock solutions and the stock solutions were stored in a refrigerator in the dark. • 2. Kinase reaction process:
Preparation of compounds: the test compounds had the concentration of 5,000 nM and diluted in a 384-well plate into a 100% DMSO solution at the 200-fold final concentration, and the compounds were diluted 3-fold with 10 concentrations. 50 nL of the compounds at the 200-fold final concentration were transferred to the plate of interest, the 384-well plate, using a dispenser Echo 550. 50 nL of 100% DMSO was added to each negative control well and positive control well.
A Tag1-SOS1 solution at the 4-fold final concentration was prepared using a diluent buffer.
2.5 μL of the Tag1-SOS1 solution at the 4-fold final concentration was added to the 384-well plate.
A Tag2-KRAS-G12C solution at the 4-fold final concentration was prepared using the diluent buffer.
2.5 μL of the Tag2-KRAS-G12C solution at the 4-fold final concentration was respectively added into compound wells and the positive control wells; and 2.5 μL of the diluent buffer was added to the negative control wells.
The 384-well plate was centrifuged at 1,000 rpm for 30 seconds, shaken and mixed uniformly, and incubated at room temperature for 15 minutes.
An Anti-Tag1-TB3+ solution at the 1-fold final concentration and an Anti-Tag2-XL665 solution at the 1-fold final concentration were prepared using a detection buffer, the two solutions were mixed uniformly to obtain a Mix solution, and 5 μL of the Mix solution was added into each well.
The 384-well plate was centrifuged at 1,000 rpm for 30 seconds, shaken and mixed uniformly, and incubated at 4° C. for 120 minutes.
Em665/620 was read using an Envision microplate reader.
Inhibition %=(Max signal−Compound signal)/(Max signal−Min signal)×100 Calculation formula • wherein the Min signal was the mean value of the negative control wells, and the Max signal was the mean value of the positive control wells.
A dose-response curve was fitted using the log value of the concentration as an X axis and the percentage of the inhibitory rate as a Y axis by using the log(inhibitor) vs. response-variable slope of an analytical software GraphPadPrism5, thereby obtaining the IC50 value of each compound on an enzyme activity.

KRAS-G12C/SOS1, sequence (Q07889 whole entry, stated change not applied): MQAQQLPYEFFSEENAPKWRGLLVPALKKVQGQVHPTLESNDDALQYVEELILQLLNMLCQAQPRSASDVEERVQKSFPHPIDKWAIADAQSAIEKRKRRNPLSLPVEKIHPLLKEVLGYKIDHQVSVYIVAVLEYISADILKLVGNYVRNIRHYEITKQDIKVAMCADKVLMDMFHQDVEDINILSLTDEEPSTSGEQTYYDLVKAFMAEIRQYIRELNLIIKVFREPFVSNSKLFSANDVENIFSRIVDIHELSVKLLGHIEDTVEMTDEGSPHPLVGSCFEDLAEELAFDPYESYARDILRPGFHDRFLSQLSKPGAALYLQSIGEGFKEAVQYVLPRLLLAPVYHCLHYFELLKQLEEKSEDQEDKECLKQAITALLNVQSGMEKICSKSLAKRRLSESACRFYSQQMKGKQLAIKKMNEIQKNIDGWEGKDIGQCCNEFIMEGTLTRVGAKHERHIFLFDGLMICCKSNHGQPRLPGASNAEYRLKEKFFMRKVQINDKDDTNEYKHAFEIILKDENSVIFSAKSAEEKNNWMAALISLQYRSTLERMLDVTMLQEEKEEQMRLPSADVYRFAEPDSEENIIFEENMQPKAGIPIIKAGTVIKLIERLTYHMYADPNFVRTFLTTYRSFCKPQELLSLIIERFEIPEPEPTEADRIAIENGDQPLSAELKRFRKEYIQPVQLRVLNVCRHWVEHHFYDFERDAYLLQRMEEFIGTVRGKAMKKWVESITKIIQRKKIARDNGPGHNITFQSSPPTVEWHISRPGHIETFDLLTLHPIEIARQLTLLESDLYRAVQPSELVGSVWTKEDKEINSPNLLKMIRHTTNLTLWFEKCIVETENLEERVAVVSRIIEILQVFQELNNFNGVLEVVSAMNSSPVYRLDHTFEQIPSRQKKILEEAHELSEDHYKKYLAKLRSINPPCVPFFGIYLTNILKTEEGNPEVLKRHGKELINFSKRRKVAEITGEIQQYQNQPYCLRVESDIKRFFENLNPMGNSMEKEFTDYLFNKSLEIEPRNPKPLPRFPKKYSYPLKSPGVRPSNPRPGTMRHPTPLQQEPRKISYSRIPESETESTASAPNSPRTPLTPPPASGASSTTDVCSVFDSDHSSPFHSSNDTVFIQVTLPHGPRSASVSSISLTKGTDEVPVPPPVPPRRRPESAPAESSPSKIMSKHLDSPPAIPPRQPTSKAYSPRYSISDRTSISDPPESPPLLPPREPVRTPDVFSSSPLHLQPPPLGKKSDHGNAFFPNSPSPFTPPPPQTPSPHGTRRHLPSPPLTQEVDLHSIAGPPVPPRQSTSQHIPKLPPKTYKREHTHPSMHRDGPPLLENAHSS

Take `C[C@@H](Nc1ccnc2cnc(C3(O)CCC(O)CC3)cc12)c1cccc(C(F)(F)F)c1F` (single isomer, unassigned) [Compound B-85-P1]: the IC50 in assay [1] (Homo sapiens, PC-9, 1 h) was 300 to 1000 nM; in assay [2], not above 100 nM.
For `C[C@@H](Nc1ccnc2cnc(C3(O)CCC(O)CC3)cc12)c1cccc(C(F)(F)F)c1F` (single isomer, unassigned) [Compound B-85-P2], the IC50 was not above 300 nM in assay [1] and not above 100 nM in assay [2].
Consider `C[C@@H](Nc1ccnc2cnc(C3(O)CCC(O)CC3)cc12)c1cccc(C(C)(F)F)c1F` (single isomer, unassigned) [Compound B-87-P1], for which the IC50 in assay [1] (Homo sapiens, PC-9, 1 h) is more than 1000 nM; in assay [2] it was 100 to 500 nM.
On to `C[C@@H](Nc1ccnc2cnc(C3(O)CCC(O)CC3)cc12)c1cccc(C(C)(F)F)c1F` (single isomer, unassigned) [Compound B-87-P2], for which the IC50 in assay [1] was more than 1000 nM; in assay [2], 100 to 500 nM.
`Cc1cc(N[C@H](C)c2cccc(C(F)F)c2F)c2cc(C3(O)CCC(O)CC3)ncc2n1` (single isomer, unassigned) [Compound B-88-P2]: the IC50 in assay [1] (Homo sapiens, PC-9, 1 h) is 300 to 1000 nM; in assay [2] it was not above 100 nM.
With `C[C@@H](Nc1ccnc2cnc(C3(O)CCC(N(C)C)CC3)cc12)c1cccc(C(F)F)c1F` (single isomer, unassigned) [Compound B-94-P2], the IC50 is not above 300 nM in assay [1] (Homo sapiens, PC-9, 1 h) and not above 100 nM in assay [2].
Consider `C[C@@H](Nc1ccnc2cnc(C3(O)CCC(N4CCNCC4)CC3)cc12)c1cccc(C(F)F)c1F` (single isomer, unassigned) [Compound B-97-P2], for which the IC50 in assay [1] (Homo sapiens, PC-9, 1 h) is 300 to 1000 nM; in assay [2], not above 100 nM.
As for `C[C@@H](Nc1ccnc2cnc(C3(O)CCC(C(C)(C)O)CC3)cc12)c1cccc(C(F)(F)F)c1F` (single isomer, unassigned) [Compound B-115-P1], the IC50 is more than 1000 nM in assay [1] and 100 to 500 nM in assay [2].
As to `C[C@@H](Nc1ccnc2cnc(C3(O)CCC(C(C)(C)O)CC3)cc12)c1cccc(C(F)(F)F)c1F` (single isomer, unassigned) [Compound B-115-P2], the results for the IC50 in assay [1] and in assay [2] were not above 300 nM and not above 100 nM, respectively.
For `COc1nc(C2(O)CCC(O)CC2)cc2c(N[C@H](C)c3cccc(C(F)F)c3F)ccnc12` (single isomer, unassigned) [Compound B-178-P1], in that order: more than 1000 nM and not above 100 nM.
For `COc1nc(C2(O)CCC(O)CC2)cc2c(N[C@H](C)c3cccc(C(F)F)c3F)ccnc12` (single isomer, unassigned) [Compound B-178-P2], in that order: not above 300 nM and not above 100 nM.
For `CC(=O)N1CCC(c2cc(F)c3nccc(N[C@H](C)c4cccc(C(F)F)c4F)c3c2)CC1` [Compound A-99], the IC50 in assay [1] (Homo sapiens, PC-9, 1 h) is not above 300 nM; in assay [2], not above 100 nM.
Regarding `CC(=O)N1CCN(c2cc(F)c3nccc(N[C@H](C)c4cccc(C(F)F)c4F)c3c2)CC1` [Compound A-100], the IC50 in assay [1] (Homo sapiens, PC-9, 1 h) was not above 300 nM; in assay [2], not above 100 nM.
In the case of `COc1c(C2=CCN(C(C)=O)CC2)cc2c(N[C@H](C)c3cccc(C(F)F)c3F)ccnc2c1F` [Compound A-101], the IC50 in assay [1] (Homo sapiens, PC-9, 1 h) is 300 to 1000 nM; in assay [2] it was not above 100 nM.
Consider `COc1c(N2CCN(C(C)=O)CC2)cc2c(N[C@H](C)c3cccc(C(F)F)c3F)ccnc2c1F` [Compound A-102], for which the IC50 in assay [1] (Homo sapiens, PC-9, 1 h) was not above 300 nM; in assay [2], not above 100 nM.
For the compound `C[C@@H](Nc1ccnc2cnc(C3CC3)cc12)c1cccc(C(F)F)c1F` [Compound B-1], the IC50 in assay [1] (Homo sapiens, PC-9, 1 h) was 300 to 1000 nM; in assay [2] it was not above 100 nM.
For the compound `CC(=O)N1CC=C(c2cc3c(N[C@H](C)c4cccc(C(F)F)c4F)ccnc3cn2)CC1` [Compound B-3], the IC50 was not above 300 nM in assay [1] (Homo sapiens, PC-9, 1 h) and not above 100 nM in assay [2].
For `CC(=O)N1CCC(c2cc3c(N[C@H](C)c4cccc(C(F)F)c4F)ccnc3cn2)CC1` [Compound B-4], in that order: not above 300 nM and not above 100 nM.
With `C[C@@H](Nc1ccnc2cnc(N3CCN(C(=O)C4CC4)CC3)cc12)c1cccc(C(F)F)c1F` [Compound B-25], in assay [1] (Homo sapiens, PC-9, 1 h), the IC50 is not above 300 nM.
As for `C[C@@H](Nc1ccnc2cnc(N3CCN(C(=O)C4COC4)CC3)cc12)c1cccc(C(F)F)c1F` [Compound B-26], the IC50 in assay [1] (Homo sapiens, PC-9, 1 h) is not above 300 nM.
Turning to `C[C@@H](Nc1ccnc2cnc(N3CCN(C(=O)C4CCOCC4)CC3)cc12)c1cccc(C(F)F)c1F` [Compound B-27], the IC50 in assay [1] (Homo sapiens, PC-9, 1 h) is not above 300 nM.
With `C[C@@H](Nc1ccnc2cnc(N3CCn4nccc4C3)cc12)c1cccc(C(F)F)c1F` [Compound B-28], the IC50 in assay [1] (Homo sapiens, PC-9, 1 h) was in the range of 300 to 1000 nM.
As for `C[C@@H](Nc1ccnc2cnc(N3CCn4ccnc4C3)cc12)c1cccc(C(F)F)c1F` [Compound B-29], the IC50 in assay [1] (Homo sapiens, PC-9, 1 h) is 300 to 1000 nM.
Take `C[C@@H](Nc1ccnc2cnc(N3CCn4cncc4C3)cc12)c1cccc(C(F)F)c1F` [Compound B-30]: the IC50 in assay [1] (Homo sapiens, PC-9, 1 h) is not above 300 nM.
Turning to `C[C@@H](O)C(=O)N1CCC(O)(c2cc3c(N[C@H](C)c4cccc(C(F)F)c4F)ccnc3cn2)CC1` [Compound B-120], the IC50 in assay [1] (Homo sapiens, PC-9, 1 h) is not above 300 nM.
On to `C[C@@H](Nc1ccnc2cnc(C3(O)CCN(C(=O)C[C@@H]4CNCCO4)CC3)cc12)c1cccc(C(F)F)c1F` [Compound B-142], for which the IC50 in assay [1] (Homo sapiens, PC-9, 1 h) was more than 1000 nM.
On the same count and under the same terms, to `C[C@@H](Nc1ccnc2cnc(C3(O)CCN(C(=O)C[C@H]4CNCCO4)CC3)cc12)c1cccc(C(F)F)c1F` [Compound B-143] belongs more than 1000 nM; to `C[C@@H](Nc1ccnc2cnc(N3CCCS3(=O)=O)cc12)c1cccc(C#N)c1F` [Compound B-166], not above 300 nM.
